Tests used:
[1] = biological target: Carbonic anhydrase 9 (Homo sapiens, UniProt Q16790)
Description: Inhibition of human carbonic anhydrase 9 by stopped-flow CO2 hydration assay

[2] = biological target: Carbonic anhydrase 12 (Homo sapiens, UniProt O43570)
Description: Inhibition of human carbonic anhydrase 12 by stopped-flow CO2 hydration assay

[3] = biological target: Carbonic anhydrase 14 (Homo sapiens, UniProt Q9ULX7); assay: Inhibition of human carbonic anhydrase 14 by stopped-flow CO2 hydration assay
[4] = biological target: Albumin (Homo sapiens, UniProt P02768); assay: Binding affinity to human serum albumin by chromatographic analysis; format: ADME; details: isolated protein
Albumin, sequence (P02768 whole entry, the tested form may be a part): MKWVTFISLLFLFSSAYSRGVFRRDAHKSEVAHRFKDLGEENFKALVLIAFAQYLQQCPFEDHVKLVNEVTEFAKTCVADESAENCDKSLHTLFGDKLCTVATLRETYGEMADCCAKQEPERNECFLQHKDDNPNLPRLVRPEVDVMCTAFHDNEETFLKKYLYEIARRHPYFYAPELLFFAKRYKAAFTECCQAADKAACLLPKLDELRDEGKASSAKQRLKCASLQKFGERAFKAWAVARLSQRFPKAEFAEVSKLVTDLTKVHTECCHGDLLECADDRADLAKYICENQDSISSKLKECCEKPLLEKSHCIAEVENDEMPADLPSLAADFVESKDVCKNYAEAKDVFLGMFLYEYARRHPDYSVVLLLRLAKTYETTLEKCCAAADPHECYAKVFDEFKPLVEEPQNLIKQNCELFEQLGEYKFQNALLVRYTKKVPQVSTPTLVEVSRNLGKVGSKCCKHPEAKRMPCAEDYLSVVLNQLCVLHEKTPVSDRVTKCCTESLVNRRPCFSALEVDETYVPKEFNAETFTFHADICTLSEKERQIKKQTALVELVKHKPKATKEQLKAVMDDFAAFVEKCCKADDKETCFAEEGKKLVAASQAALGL

[5] = Permeability of the compound in human Caco2 cells assessed as mass balance in diffusion chamber at 15 uM after 90 mins; format: ADME, cell-based; details: Caco-2, read-out: permeability
[6] = Degradation half life in human plasma at 5000 ng/mL by UPLC-MS analysis; format: ADME, cell-free
[7] = Intrinsic clearance in human liver microsomes at 1 uM after 2 to 60 mins by LCMS analysis in presence of NADPH; format: ADME; details: read-out: CLH
[8] = Permeability of the compound in human Caco2 cells assessed as mass balance in diffusion chamber at 20 uM after 90 mins; format: ADME, cell-based; details: Caco-2, read-out: permeability
[9] = Intrinsic clearance in human liver microsomes at 1 uM after 2 to 60 mins by LCMS analysis in absence of NADPH; format: ADME; details: read-out: CLH
[10] = biological target: Carbonic anhydrase 1 (Homo sapiens, UniProt P00915)
Carbonic anhydrase 1, sequence (P00915 whole entry): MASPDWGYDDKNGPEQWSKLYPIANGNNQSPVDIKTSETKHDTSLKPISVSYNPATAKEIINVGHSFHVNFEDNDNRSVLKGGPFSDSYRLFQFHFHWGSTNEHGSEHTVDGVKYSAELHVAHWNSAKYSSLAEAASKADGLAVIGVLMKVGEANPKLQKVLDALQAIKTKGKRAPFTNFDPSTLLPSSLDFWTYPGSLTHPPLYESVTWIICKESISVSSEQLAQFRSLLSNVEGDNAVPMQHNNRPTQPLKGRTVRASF
Description: Inhibition of human carbonic anhydrase 1 by stopped-flow CO2 hydration assay

[11] = biological target: Carbonic anhydrase 2 (Homo sapiens, UniProt P00918)
Description: Inhibition of human carbonic anhydrase 2 by stopped-flow CO2 hydration assay

[12] = Solubility of the compound in HEPES buffer at pH 7.4; format: physicochemical
[13] = Permeability of the compound in human Caco2 cells assessed as mass balance in diffusion chamber at 8 uM after 90 mins; format: ADME, cell-based; details: Caco-2, read-out: permeability

Carbonic anhydrase 14, sequence (Q9ULX7 whole entry): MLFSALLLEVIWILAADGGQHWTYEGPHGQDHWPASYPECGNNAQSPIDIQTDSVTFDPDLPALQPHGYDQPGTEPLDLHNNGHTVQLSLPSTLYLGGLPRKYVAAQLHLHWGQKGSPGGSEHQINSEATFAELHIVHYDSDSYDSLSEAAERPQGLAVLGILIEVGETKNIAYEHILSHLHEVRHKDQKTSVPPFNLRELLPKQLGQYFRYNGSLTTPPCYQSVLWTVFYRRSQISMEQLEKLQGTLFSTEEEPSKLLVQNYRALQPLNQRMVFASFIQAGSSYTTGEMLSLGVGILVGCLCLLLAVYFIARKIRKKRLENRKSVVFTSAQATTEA
Carbonic anhydrase 12, sequence (O43570 whole entry): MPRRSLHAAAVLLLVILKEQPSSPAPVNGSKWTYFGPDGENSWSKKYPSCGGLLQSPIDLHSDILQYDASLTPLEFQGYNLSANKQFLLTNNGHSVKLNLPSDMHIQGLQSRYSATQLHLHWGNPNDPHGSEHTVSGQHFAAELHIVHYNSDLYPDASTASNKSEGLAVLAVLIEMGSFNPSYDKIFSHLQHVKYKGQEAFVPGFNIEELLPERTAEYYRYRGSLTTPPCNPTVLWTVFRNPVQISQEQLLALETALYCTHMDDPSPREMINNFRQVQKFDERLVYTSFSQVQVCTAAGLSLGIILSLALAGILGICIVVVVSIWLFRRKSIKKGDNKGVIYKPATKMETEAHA

Structure (SMILES) | Ki [1] [µM] | Ki [2] [µM] | Ki [3] [µM] | Ki [10] [µM] | Ki [11] [µM] | further results
C#Cc1cccc(S(N)(=O)=O)c1 | 0.0657 |  |  |  |  | 
CC(=O)OC[C@H]1O[C@@H](n2cc(-c3ccc(S(N)(=O)=O)cc3)nn2)[C@H](OC(C)=O)[C@@H](OC(C)=O)[C@@H]1OC(C)=O |  | 0.0671 | 0.104 |  |  | Activity [4]: 30%; recovery at 1.5 h, 15 µM [5]: 81%; half-life at 5000 ng/mL [6]: 7 min
NS(=O)(=O)c1ccc(-c2cn([C@@H]3O[C@H](CO)[C@@H](O)[C@H](O)[C@H]3O)nn2)cc1 |  | 0.0401 | 0.0503 |  |  | microsomal CLint at 1 µM [7]: < 7 µL/min/mg; recovery at 1.5 h, 20 µM [8]: 100%; Activity [4]: 13%; microsomal CLint at 1 µM [9]: < 7 µL/min/mg; half-life at 5000 ng/mL [6]: > 250 min
NS(=O)(=O)c1ccc(-c2cn([C@@H]3O[C@H](CO)[C@H](O)[C@H](O)[C@H]3O)nn2)cc1 | 0.126 | 0.0363 | 0.0201 | 7.95 | 0.0067 | 
C#Cc1ccc(S(N)(=O)=O)cc1 | 0.054 |  |  |  |  | 
CCCCC(=O)OC[C@H]1O[C@@H](n2cc(-c3cccc(S(N)(=O)=O)c3)nn2)[C@H](OC(=O)CCCC)[C@@H](OC(=O)CCCC)[C@H]1OC(=O)CCCC | 0.8 |  |  |  |  | 
NS(=O)(=O)c1cccc(-c2cn([C@@H]3O[C@H](CO)[C@H](O)[C@H](O)[C@H]3O)nn2)c1 | 0.59 |  |  |  |  | 
CCCCC(=O)OC[C@H]1O[C@@H](n2cc(-c3ccc(S(N)(=O)=O)cc3)nn2)[C@H](OC(=O)CCCC)[C@@H](OC(=O)CCCC)[C@H]1OC(=O)CCCC |  | 0.031 | 0.0673 | 2.13 | 0.0736 | 
CCCC(=O)OC[C@H]1O[C@@H](n2cc(-c3ccc(S(N)(=O)=O)cc3)nn2)[C@H](OC(=O)CCC)[C@@H](OC(=O)CCC)[C@H]1OC(=O)CCC |  | 0.0095 | 0.0356 | 0.257 | 0.0069 | 
CCC(=O)OC[C@H]1O[C@@H](n2cc(-c3ccc(S(N)(=O)=O)cc3)nn2)[C@H](OC(=O)CC)[C@@H](OC(=O)CC)[C@H]1OC(=O)CC | 0.0051 | 0.0054 | 0.0109 | 0.0788 | 0.0081 | 
CCCCC(=O)OC[C@H]1O[C@@H](n2cc(-c3cccc(S(N)(=O)=O)c3)nn2)[C@H](OC(=O)CCCC)[C@@H](OC(=O)CCCC)[C@@H]1OC(=O)CCCC | 0.402 |  |  |  |  | 
CCCCC(=O)OC[C@H]1O[C@@H](n2cc(-c3ccc(S(N)(=O)=O)cc3)nn2)[C@H](OC(=O)CCCC)[C@@H](OC(=O)CCCC)[C@@H]1OC(=O)CCCC |  | 0.0527 | 0.176 | 9.23 | 0.573 | solubility [12]: Insoluble; microsomal CLint at 1 µM [7]: < 7 µL/min/mg; Activity [4]: > 99%; microsomal CLint at 1 µM [9]: < 7 µL/min/mg; half-life at 5000 ng/mL [6]: > 250 min
CCCC(=O)OC[C@H]1O[C@@H](n2cc(-c3ccc(S(N)(=O)=O)cc3)nn2)[C@H](OC(=O)CCC)[C@@H](OC(=O)CCC)[C@@H]1OC(=O)CCC | 0.633 | 0.0502 | 0.119 | 1.8 | 0.0763 | solubility [12]: Insoluble; Activity [4]: 94%; half-life at 5000 ng/mL [6]: 25 min
CCC(=O)OC[C@H]1O[C@@H](n2cc(-c3ccc(S(N)(=O)=O)cc3)nn2)[C@H](OC(=O)CC)[C@@H](OC(=O)CC)[C@@H]1OC(=O)CC | 0.475 | 0.0074 | 0.256 | 2.02 | 0.0711 | Activity [4]: 77%; recovery at 1.5 h, 8 µM [13]: 47%; half-life at 5000 ng/mL [6]: 3 min
CC(=O)OC[C@H]1O[C@@H](n2cc(-c3ccc(S(N)(=O)=O)cc3)nn2)[C@H](OC(C)=O)[C@@H](OC(C)=O)[C@H]1OC(C)=O |  | 0.0097 | 0.0158 |  |  | 

Now from value to compound, other results behind:

Ki [1] [µM] | Ki [2] [µM] | Ki [3] [µM] | Ki [10] [µM] | Ki [11] [µM] | Structure (SMILES) | further results
0.254 |  |  |  |  | CC(C)CC(=O)OC[C@H]1O[C@@H](n2cc(-c3cccc(S(N)(=O)=O)c3)nn2)[C@H](OC(=O)CC(C)C)[C@@H](OC(=O)CC(C)C)[C@H]1OC(=O)CC(C)C | 
0.0692 |  |  |  |  | CCCC(=O)OC[C@H]1O[C@@H](n2cc(-c3cccc(S(N)(=O)=O)c3)nn2)[C@H](OC(=O)CCC)[C@@H](OC(=O)CCC)[C@H]1OC(=O)CCC | 
0.126 |  |  |  |  | CCC(=O)OC[C@H]1O[C@@H](n2cc(-c3cccc(S(N)(=O)=O)c3)nn2)[C@H](OC(=O)CC)[C@@H](OC(=O)CC)[C@H]1OC(=O)CC | 
0.943 |  |  |  |  | CC(=O)OC[C@H]1O[C@@H](n2cc(-c3cccc(S(N)(=O)=O)c3)nn2)[C@H](OC(C)=O)[C@@H](OC(C)=O)[C@H]1OC(C)=O | 
0.374 | 0.0233 | 0.0159 | 3.21 | 0.0379 | CC(C)CC(=O)OC[C@H]1O[C@@H](n2cc(-c3ccc(S(N)(=O)=O)cc3)nn2)[C@H](OC(=O)CC(C)C)[C@@H](OC(=O)CC(C)C)[C@H]1OC(=O)CC(C)C | 
0.724 |  |  |  |  | CC(C)CC(=O)OC[C@H]1O[C@@H](n2cc(-c3cccc(S(N)(=O)=O)c3)nn2)[C@H](OC(=O)CC(C)C)[C@@H](OC(=O)CC(C)C)[C@@H]1OC(=O)CC(C)C | 
0.583 |  |  |  |  | CCCC(=O)OC[C@H]1O[C@@H](n2cc(-c3cccc(S(N)(=O)=O)c3)nn2)[C@H](OC(=O)CCC)[C@@H](OC(=O)CCC)[C@@H]1OC(=O)CCC | 
0.48 |  |  |  |  | CC(=O)OC[C@H]1O[C@@H](n2cc(-c3cccc(S(N)(=O)=O)c3)nn2)[C@H](OC(C)=O)[C@@H](OC(C)=O)[C@@H]1OC(C)=O | 
0.874 |  |  |  |  | CCC(=O)OC[C@H]1O[C@@H](n2cc(-c3cccc(S(N)(=O)=O)c3)nn2)[C@H](OC(=O)CC)[C@@H](OC(=O)CC)[C@@H]1OC(=O)CC | 
0.426 | 0.052 | 0.0401 | 9.44 | 0.44 | CC(C)CC(=O)OC[C@H]1O[C@@H](n2cc(-c3ccc(S(N)(=O)=O)cc3)nn2)[C@H](OC(=O)CC(C)C)[C@@H](OC(=O)CC(C)C)[C@@H]1OC(=O)CC(C)C | solubility [12]: Insoluble; microsomal CLint at 1 µM [7]: < 7 µL/min/mg; Activity [4]: > 99%; microsomal CLint at 1 µM [9]: < 7 µL/min/mg; half-life at 5000 ng/mL [6]: > 250 min
